In paper PMC5218480 (PLoS ONE, 2017):

Test system: MV-4-11 cells
Experiment: Gene expression microarray analysis (Affymetrix PrimeView) and GSEA
Assay type: cell-based, human
Design: RFU PODN (11730768_x_at) / Fold change /veh PODN (11730768_x_at) / RFU LINC00158 (11744669_a_at) / Fold change /veh LINC00158 (11744669_a_at) / RFU DUSP10 (11751237_a_at) / Fold change /veh DUSP10 (11751237_a_at) / RFU ID3 (11757404_x_at) / Fold change /veh ID3 (11757404_x_at) / RFU PLEKHG5 (11737974_s_at) / Fold change /veh PLEKHG5 (11737974_s_at) / RFU LRRC4B (11730491_at) / Fold change /veh LRRC4B (11730491_at) / RFU GIMAP4 (11747438_a_at) / Fold change /veh GIMAP4 (11747438_a_at) / RFU KRT8 (11758183_x_at) / Fold change /veh KRT8 (11758183_x_at) / RFU CNN1 (11734310_a_at) / Fold change /veh CNN1 (11734310_a_at) / RFU VPS37D (11726825_at) / Fold change /veh VPS37D (11726825_at) / RFU C10orf10 (11716522_x_at) / Fold change /veh C10orf10 (11716522_x_at) / RFU KIR2DL2 /// KIR2DL4 /// KIR2DL5A /// KIR2DL5B /// KIR2DS1 /// KIR2DS2 /// KIR2DS3 /// KIR2DS4 /// KIR3DL3 /// KIR3DL3 /// KIR3DS1 (11738374_at) / Fold change /veh KIR2DL2 /// KIR2DL4 /// KIR2DL5A /// KIR2DL5B /// KIR2DS1 /// KIR2DS2 /// KIR2DS3 /// KIR2DS4 /// KIR3DL3 /// KIR3DL3 /// KIR3DS1 (11738374_at) / RFU C1QL1 (11718748_at) / Fold change /veh C1QL1 (11718748_at) / RFU TMPRSS4 (11747572_a_at) / Fold change /veh TMPRSS4 (11747572_a_at) / RFU HAMP (11756126_x_at) / Fold change /veh HAMP (11756126_x_at) / RFU RNFT2 (11725882_a_at) / Fold change /veh RNFT2 (11725882_a_at) / RFU NR4A2 (11747474_a_at) / Fold change /veh NR4A2 (11747474_a_at) / RFU ABCC12 (11746883_a_at) / Fold change /veh ABCC12 (11746883_a_at) / RFU TMEM136 (11760407_x_at) / Fold change /veh TMEM136 (11760407_x_at) / RFU CLDN22 /// WWC2 (11732394_at) / Fold change /veh CLDN22 /// WWC2 (11732394_at) / RFU HLA-DPB1 (11760878_x_at) / Fold change /veh HLA-DPB1 (11760878_x_at) / RFU SPINT1 (11716480_a_at) / Fold change /veh SPINT1 (11716480_a_at) / RFU GAP43 (11754022_s_at) / Fold change /veh GAP43 (11754022_s_at) / RFU A4GNT (11735810_at) / Fold change /veh A4GNT (11735810_at) / RFU PRB3 (11715151_x_at) / Fold change /veh PRB3 (11715151_x_at) / RFU TUBB4B (11761932_at) / Fold change /veh TUBB4B (11761932_at) / RFU CAPN14 (11732068_a_at) / Fold change /veh CAPN14 (11732068_a_at) / RFU TMCC2 (11721928_a_at) / Fold change /veh TMCC2 (11721928_a_at) / RFU IRGQ (11745062_a_at) / Fold change /veh IRGQ (11745062_a_at) / RFU FAM174B (11720279_a_at) / Fold change /veh FAM174B (11720279_a_at) / RFU TMPRSS4 (11748680_a_at) / Fold change /veh TMPRSS4 (11748680_a_at) / RFU FAM212B (11763350_a_at) / Fold change /veh FAM212B (11763350_a_at) / RFU PLEKHG5 (11743358_a_at) / Fold change /veh PLEKHG5 (11743358_a_at) / RFU ZSCAN30 (11745921_a_at) / Fold change /veh ZSCAN30 (11745921_a_at) / RFU CMKLR1 (11741424_a_at) / Fold change /veh CMKLR1 (11741424_a_at) / RFU LOC101060620 /// MAPK8IP1 (11723275_at) / Fold change /veh LOC101060620 /// MAPK8IP1 (11723275_at) / RFU SPTSSB (11747773_x_at) / Fold change /veh SPTSSB (11747773_x_at) / RFU PRSS12 (11739890_at) / Fold change /veh PRSS12 (11739890_at) / RFU BIN1 (11741810_x_at) / Fold change /veh BIN1 (11741810_x_at) / RFU WNT11 (11732464_a_at) / Fold change /veh WNT11 (11732464_a_at) / RFU C10orf10 (11716521_a_at) / Fold change /veh C10orf10 (11716521_a_at) / RFU C5orf56 (11738089_at) / Fold change /veh C5orf56 (11738089_at) / RFU CYB561 (11721691_x_at) / Fold change /veh CYB561 (11721691_x_at) / RFU ANKRD19P (11752326_a_at) / Fold change /veh ANKRD19P (11752326_a_at) / RFU OR2T12 /// OR2T33 /// OR2T8 (11738714_s_at) / Fold change /veh OR2T12 /// OR2T33 /// OR2T8 (11738714_s_at) / RFU VCAN (11748164_a_at) / Fold change /veh VCAN (11748164_a_at) / RFU JSRP1 (11732532_at) / Fold change /veh JSRP1 (11732532_at) / RFU KRTAP10-11 (11738290_x_at) / Fold change /veh KRTAP10-11 (11738290_x_at) / RFU MYO3A (11730013_a_at) / Fold change /veh MYO3A (11730013_a_at) / RFU EBF3 (11725865_a_at) / Fold change /veh EBF3 (11725865_a_at) / RFU CAMK2N1 (11719241_x_at) / Fold change /veh CAMK2N1 (11719241_x_at) / RFU C5orf56 (11738088_a_at) / Fold change /veh C5orf56 (11738088_a_at) / RFU OLFML3 (11715873_a_at) / Fold change /veh OLFML3 (11715873_a_at) / RFU LOC100653217 /// NTM (11731650_a_at) / Fold change /veh LOC100653217 /// NTM (11731650_a_at) / RFU MAPK11 (11762145_a_at) / Fold change /veh MAPK11 (11762145_a_at) / RFU FIZ1 (11724087_x_at) / Fold change /veh FIZ1 (11724087_x_at) / RFU OASL (11726364_x_at) / Fold change /veh OASL (11726364_x_at) / RFU SOX15 (11748057_x_at) / Fold change /veh SOX15 (11748057_x_at) / RFU CD79A (11719716_a_at) / Fold change /veh CD79A (11719716_a_at) / RFU HIST1H1D (11736915_at) / Fold change /veh HIST1H1D (11736915_at) / RFU CASKIN2 (11723855_a_at) / Fold change /veh CASKIN2 (11723855_a_at) / RFU LOC730098 (11760151_x_at) / Fold change /veh LOC730098 (11760151_x_at) / RFU OR4N2 (11742367_at) / Fold change /veh OR4N2 (11742367_at) / RFU PRRT2 (11749266_a_at) / Fold change /veh PRRT2 (11749266_a_at) / RFU SNX32 (11753110_a_at) / Fold change /veh SNX32 (11753110_a_at) / RFU CDHR5 (11726645_a_at) / Fold change /veh CDHR5 (11726645_a_at) / RFU RCAN1 (11760418_a_at) / Fold change /veh RCAN1 (11760418_a_at) / RFU FAM167A (11723789_a_at) / Fold change /veh FAM167A (11723789_a_at) / RFU FAM26E (11764081_at) / Fold change /veh FAM26E (11764081_at) / RFU ISYNA1 (11749810_s_at) / Fold change /veh ISYNA1 (11749810_s_at) / RFU ACY1 (11761880_at) / Fold change /veh ACY1 (11761880_at) / RFU 11764098_at / Fold change /veh 11764098_at / RFU SAMD14 (11745864_x_at) / Fold change /veh SAMD14 (11745864_x_at) / RFU NPB (11741838_a_at) / Fold change /veh NPB (11741838_a_at) / RFU TMPRSS6 (11731388_a_at) / Fold change /veh TMPRSS6 (11731388_a_at) / RFU KRTAP10-2 (11738614_at) / Fold change /veh KRTAP10-2 (11738614_at) / RFU ARHGAP8 /// PRR5-ARHGAP8 (11727945_x_at) / Fold change /veh ARHGAP8 /// PRR5-ARHGAP8 (11727945_x_at) / RFU KRTAP5-7 /// NADSYN1 (11734609_at) / Fold change /veh KRTAP5-7 /// NADSYN1 (11734609_at) / RFU RASL12 (11751679_a_at) / Fold change /veh RASL12 (11751679_a_at) / RFU CDKN2B (11736163_a_at) / Fold change /veh CDKN2B (11736163_a_at) / RFU PRF1 (11729649_at) / Fold change /veh PRF1 (11729649_at) / RFU, ZNF638 /// ZNF638-IT1 / Fold change vs veh, ZNF638 /// ZNF638-IT1 / RFU, PANK3 / Fold change vs veh, PANK3 / RFU, SH3YL1 / Fold change vs veh, SH3YL1 / RFU, ZEB2 / Fold change vs veh, ZEB2 / RFU, NRIP1 / Fold change vs veh, NRIP1 / RFU, PTTG1IP / Fold change vs veh, PTTG1IP / RFU, CAPN2 / Fold change vs veh, CAPN2 / RFU, MED14 / Fold change vs veh, MED14 / RFU, SNORA58 / Fold change vs veh, SNORA58 / RFU, C1orf63 / Fold change vs veh, C1orf63 / RFU, LRRFIP1 / Fold change vs veh, LRRFIP1 / RFU, NDUFAF7 / Fold change vs veh, NDUFAF7 / RFU, SLC12A2 / Fold change vs veh, SLC12A2 / RFU, IBTK / Fold change vs veh, IBTK / RFU, ESF1 / Fold change vs veh, ESF1 / Fold change vs veh, TMEM50B / RFU, TAOK1 / Fold change vs veh, TAOK1 / RFU, ACBD3 / Fold change vs veh, ACBD3 / RFU, TMA16 / Fold change vs veh, TMA16 / RFU, RWDD3 / Fold change vs veh, RWDD3 / RFU, BCAT1 / Fold change vs veh, BCAT1 / RFU, EDEM3 / Fold change vs veh, EDEM3 / RFU, TMEM33 / Fold change vs veh, TMEM33 / RFU, WDR75 / Fold change vs veh, WDR75 / RFU, AHCTF1 / Fold change vs veh, AHCTF1 / RFU, TFRC / Fold change vs veh, TFRC / RFU, ZDHHC17 / Fold change vs veh, ZDHHC17 / RFU, NOM1 / Fold change vs veh, NOM1 / RFU, ARL8B / Fold change vs veh, ARL8B / RFU, ZBTB11 / Fold change vs veh, ZBTB11 / RFU, TAMM41 / Fold change vs veh, TAMM41 / RFU, KIAA1704 /// LOC100996395 / Fold change vs veh, KIAA1704 /// LOC100996395 / RFU, ING1 / Fold change vs veh, ING1 / RFU, TRMT61B / Fold change vs veh, TRMT61B / RFU, FUBP3 / Fold change vs veh, FUBP3 / RFU, TP53 / Fold change vs veh, TP53 / RFU, TNKS2 / Fold change vs veh, TNKS2 / RFU, ZFP14 / Fold change vs veh, ZFP14 / RFU, ACTR2 / Fold change vs veh, ACTR2 / RFU, PPP3R1 / Fold change vs veh, PPP3R1 / RFU, PIK3R1 / Fold change vs veh, PIK3R1 / RFU, HNRNPA1 / Fold change vs veh, HNRNPA1 / RFU, RNF170 / Fold change vs veh, RNF170 / RFU, ZNF28 / Fold change vs veh, ZNF28 / RFU, RNGTT / Fold change vs veh, RNGTT / RFU, OGT / Fold change vs veh, OGT / RFU, BRD1 / Fold change vs veh, BRD1 / RFU, MARS / Fold change vs veh, MARS / RFU, ZNF655 / Fold change vs veh, ZNF655 / RFU, FAHD1 / Fold change vs veh, FAHD1 / RFU, BDP1 / Fold change vs veh, BDP1 / RFU, LRRCC1 / Fold change vs veh, LRRCC1 / RFU, ARID1A / Fold change vs veh, ARID1A / RFU, ZNF146 / Fold change vs veh, ZNF146 / RFU, ZNF330 / Fold change vs veh, ZNF330 / RFU, GPN3 / Fold change vs veh, GPN3 / RFU, C9orf123 / Fold change vs veh, C9orf123 / RFU, N4BP2L2 / Fold change vs veh, N4BP2L2 / RFU, ARFIP1 / Fold change vs veh, ARFIP1 / RFU, FAM179B / Fold change vs veh, FAM179B / RFU, BCL10 / Fold change vs veh, BCL10 / RFU, UHRF1BP1L / Fold change vs veh, UHRF1BP1L / RFU, BET1 / Fold change vs veh, BET1 / RFU, CNOT2 / Fold change vs veh, CNOT2 / RFU, ZNF268 / Fold change vs veh, ZNF268 / Fold change vs veh, ZNF507 / RFU, DGCR2 / Fold change vs veh, DGCR2 / RFU, WDSUB1 / Fold change vs veh, WDSUB1 / Fold change vs veh, HSP90B1 /// MIR3652 / RFU, ADSS / Fold change vs veh, ADSS / RFU, GK / Fold change vs veh, GK / RFU, ZNF148 / Fold change vs veh, ZNF148 / RFU, TAF9 / Fold change vs veh, TAF9 / RFU, SLC1A5 / Fold change vs veh, SLC1A5 / RFU, SLMO2 / Fold change vs veh, SLMO2 / RFU, ABCC4 / Fold change vs veh, ABCC4 / RFU, LOC101060439 /// RAP1B / Fold change vs veh, LOC101060439 /// RAP1B / RFU, RFX7 / Fold change vs veh, RFX7 / RFU, GTPBP10 / Fold change vs veh, GTPBP10 / RFU, CNEP1R1 / Fold change vs veh, CNEP1R1 / RFU, BIVM-ERCC5 /// ERCC5 / Fold change vs veh, BIVM-ERCC5 /// ERCC5 / RFU, ILF3 / Fold change vs veh, ILF3 / RFU 11762660_at / Fold change /veh 11762660_at / RFU VCAN (11757783_s_at) / Fold change /veh VCAN (11757783_s_at) / RFU DDX43 (11728927_at) / Fold change /veh DDX43 (11728927_at) / RFU KRT8 (11758188_x_at) / Fold change /veh KRT8 (11758188_x_at) / RFU NKD1 (11759106_at) / Fold change /veh NKD1 (11759106_at) / RFU SRD5A1 (11742802_a_at) / Fold change /veh SRD5A1 (11742802_a_at) / RFU TPSAB1 /// TPSB2 (11721975_s_at) / Fold change /veh TPSAB1 /// TPSB2 (11721975_s_at) / RFU GSTM3 (11746129_a_at) / Fold change /veh GSTM3 (11746129_a_at) / RFU IL23R (11737362_x_at) / Fold change /veh IL23R (11737362_x_at) / RFU TMEM51 (11727254_a_at) / Fold change /veh TMEM51 (11727254_a_at) / RFU PIWIL2 (11732686_x_at) / Fold change /veh PIWIL2 (11732686_x_at) / RFU ORM1 (11744905_x_at) / Fold change /veh ORM1 (11744905_x_at) / RFU CCDC152 (11743942_at) / Fold change /veh CCDC152 (11743942_at) / RFU ECM1 (11717891_a_at) / Fold change /veh ECM1 (11717891_a_at) / RFU IL23R (11748794_a_at) / Fold change /veh IL23R (11748794_a_at) / RFU TNFAIP8L3 (11732012_x_at) / Fold change /veh TNFAIP8L3 (11732012_x_at) / RFU MBOAT4 (11741988_at) / Fold change /veh MBOAT4 (11741988_at) / RFU 11764193_at / Fold change /veh 11764193_at / RFU TMEM53 (11763286_at) / Fold change /veh TMEM53 (11763286_at) / RFU MAGEB2 (11727129_at) / Fold change /veh MAGEB2 (11727129_at) / RFU TMEM200A (11744735_a_at) / Fold change /veh TMEM200A (11744735_a_at) / RFU CCDC152 (11751479_a_at) / Fold change /veh CCDC152 (11751479_a_at) / RFU FAM211A (11726209_a_at) / Fold change /veh FAM211A (11726209_a_at) / RFU RGS16 (11746705_a_at) / Fold change /veh RGS16 (11746705_a_at) / RFU VCAN (11755009_s_at) / Fold change /veh VCAN (11755009_s_at) / RFU RHOB (11743442_s_at) / Fold change /veh RHOB (11743442_s_at) / RFU RGS16 (11720943_a_at) / Fold change /veh RGS16 (11720943_a_at) / RFU RGS16 (11720944_at) / Fold change /veh RGS16 (11720944_at) / RFU, VPS4B / Fold change vs veh, VPS4B / RFU, CREB1 / Fold change vs veh, CREB1 / RFU, DNAJC13 / Fold change vs veh, DNAJC13 / RFU, GNAQ / Fold change vs veh, GNAQ / RFU, CDK5R1 / Fold change vs veh, CDK5R1 / RFU, ZRANB3 / Fold change vs veh, ZRANB3 / RFU, CUL4A / Fold change vs veh, CUL4A / RFU, CCNY / Fold change vs veh, CCNY / RFU, UFL1 / Fold change vs veh, UFL1 / RFU, COG3 / Fold change vs veh, COG3 / RFU, DIAPH2 / Fold change vs veh, DIAPH2 / RFU, SKA2 / Fold change vs veh, SKA2 / RFU, AFF3 / Fold change vs veh, AFF3 / RFU, LMF1 / Fold change vs veh, LMF1 / RFU, IPO11 / Fold change vs veh, IPO11 / RFU, DFFB / Fold change vs veh, DFFB / RFU, FOXP1 / Fold change vs veh, FOXP1 / RFU, CARD8 / Fold change vs veh, CARD8 / RFU, STRN3 / Fold change vs veh, STRN3 / RFU, ADK / Fold change vs veh, ADK / RFU, RASSF2 / Fold change vs veh, RASSF2 / RFU, WIPF1 / Fold change vs veh, WIPF1 / RFU, LARP1B / Fold change vs veh, LARP1B / RFU, RASA1 / Fold change vs veh, RASA1 / RFU, RB1 / Fold change vs veh, RB1 / RFU, PPFIA1 / Fold change vs veh, PPFIA1 / RFU, MAT2A / Fold change vs veh, MAT2A / RFU, CCT5 / Fold change vs veh, CCT5 / RFU, WDR92 / Fold change vs veh, WDR92 / RFU, CUX1 / Fold change vs veh, CUX1 / RFU, TTC7A / Fold change vs veh, TTC7A / RFU, TMEM135 / Fold change vs veh, TMEM135 / RFU, DEPTOR / Fold change vs veh, DEPTOR / RFU, CPM / Fold change vs veh, CPM / RFU, DNAJB6 / Fold change vs veh, DNAJB6 / RFU, CACNA2D3 / Fold change vs veh, CACNA2D3 / RFU, DTX4 / Fold change vs veh, DTX4 / RFU, TFCP2 / Fold change vs veh, TFCP2 / RFU, GMCL1 /// GMCL1P1 / Fold change vs veh, GMCL1 /// GMCL1P1 / RFU, AEBP2 / Fold change vs veh, AEBP2 / RFU, SNHG1 /// SNORD22 /// SNORD25 /// SNORD26 /// SNORD27 /// SNORD28 /// SNORD29 /// SNORD31 / Fold change vs veh, SNHG1 /// SNORD22 /// SNORD25 /// SNORD26 /// SNORD27 /// SNORD28 /// SNORD29 /// SNORD31 / Fold change (Aza/veh), C12orf56 (ProbeSet 11735607_a_at) / Fold change (ACY-1035/veh), C12orf56 (ProbeSet 11735607_a_at) / Fold change (Aza/veh), FGFR1OP (ProbeSet 11751329_s_at) / Fold change (ACY-1035/veh), FGFR1OP (ProbeSet 11751329_s_at) / Fold change (Aza/veh), VPS36 (ProbeSet 11739960_a_at) / Fold change (ACY-1035/veh), VPS36 (ProbeSet 11739960_a_at) / RFU SYPL1 (11715823_x_at) / Fold change /veh SYPL1 (11715823_x_at) / RFU IGFBP7 (11715501_s_at) / Fold change /veh IGFBP7 (11715501_s_at) / RFU REEP3 (11722064_at) / Fold change /veh REEP3 (11722064_at) / RFU IGLL1 (11728026_x_at) / Fold change /veh IGLL1 (11728026_x_at): dose or concentration left out as unconfirmed
Details: MV-4-11 cells, 48 hours

Nc1ncn([C@@H]2O[C@H](CO)[C@@H](O)[C@H]2O)c(=O)n1 [azacitidine]
Fold change /veh DDX43 (11728927_at): 1.23
